Test results from ChEMBL document CHEMBL4396868, “Discovery of Potent, Selective, and Brain-Penetrant 1 H-Pyrazol-5-yl-1 H-pyrrolo[2,3- b]pyridines as Anaplastic Lymphoma Kinase (ALK) Inhibitors” (J Med Chem, 2019).
Blank lines part the entries; values can stand above or below the compound they belong to.

Experiments:
[1] = target: T1, ALK tyrosine kinase receptor (Homo sapiens, UniProt Q9UM73); assay type: cell-based, HEK293
Description: Inhibition of recombinant human ALK expressed in HEK293 cells assessed as reduction in ALK autophosphorylation at Tyr1604 residue incubated for 60 mins by sandwich ELISA

Homo sapiens = species: Homo sapiens; experiment: Selectivity ratio of IC50 for N-terminal GST-tagged human TrkA kinase domain (436 to 790 residues) expressed in baculovirus expression system to IC50 for human ALK kinase domain (1058 to 1620 residues) expressed in baculovirus expression system
[2] = target: T1, ALK tyrosine kinase receptor
Description: Inhibition of human ALK kinase domain (1058 to 1620 residues) expressed in baculovirus expression system using biotin-poly-GT as substrate pre-incubated for 10 mins followed by ATP addition and measured after 60 mins by HTRF method

[3] = target: High affinity nerve growth factor receptor (Homo sapiens, UniProt P04629); experiment: Inhibition of N-terminal GST-tagged human TrkA kinase domain (436 to 790 residues) expressed in baculovirus expression system using biotin-poly-GT as substrate pre-incubated for 5 mins followed by ATP addition and measured after 60 mins by alpha screen assay
MDR1 (ABCB1, P-gp) = MDR1 (ABCB1, P-gp) (Homo sapiens, UniProt P08183); experiment: Substrate activity at human MDR1 expressed in pig LLC-PK1 cells assessed as efflux ratio of apparent permeability across basolateral to apical over apical to basolateral side at 10 uM after 2 hrs by LC/MS/MS analysis; assay type: ADME, cell-based
MDR1 (ABCB1, P-gp), sequence (P08183 whole entry): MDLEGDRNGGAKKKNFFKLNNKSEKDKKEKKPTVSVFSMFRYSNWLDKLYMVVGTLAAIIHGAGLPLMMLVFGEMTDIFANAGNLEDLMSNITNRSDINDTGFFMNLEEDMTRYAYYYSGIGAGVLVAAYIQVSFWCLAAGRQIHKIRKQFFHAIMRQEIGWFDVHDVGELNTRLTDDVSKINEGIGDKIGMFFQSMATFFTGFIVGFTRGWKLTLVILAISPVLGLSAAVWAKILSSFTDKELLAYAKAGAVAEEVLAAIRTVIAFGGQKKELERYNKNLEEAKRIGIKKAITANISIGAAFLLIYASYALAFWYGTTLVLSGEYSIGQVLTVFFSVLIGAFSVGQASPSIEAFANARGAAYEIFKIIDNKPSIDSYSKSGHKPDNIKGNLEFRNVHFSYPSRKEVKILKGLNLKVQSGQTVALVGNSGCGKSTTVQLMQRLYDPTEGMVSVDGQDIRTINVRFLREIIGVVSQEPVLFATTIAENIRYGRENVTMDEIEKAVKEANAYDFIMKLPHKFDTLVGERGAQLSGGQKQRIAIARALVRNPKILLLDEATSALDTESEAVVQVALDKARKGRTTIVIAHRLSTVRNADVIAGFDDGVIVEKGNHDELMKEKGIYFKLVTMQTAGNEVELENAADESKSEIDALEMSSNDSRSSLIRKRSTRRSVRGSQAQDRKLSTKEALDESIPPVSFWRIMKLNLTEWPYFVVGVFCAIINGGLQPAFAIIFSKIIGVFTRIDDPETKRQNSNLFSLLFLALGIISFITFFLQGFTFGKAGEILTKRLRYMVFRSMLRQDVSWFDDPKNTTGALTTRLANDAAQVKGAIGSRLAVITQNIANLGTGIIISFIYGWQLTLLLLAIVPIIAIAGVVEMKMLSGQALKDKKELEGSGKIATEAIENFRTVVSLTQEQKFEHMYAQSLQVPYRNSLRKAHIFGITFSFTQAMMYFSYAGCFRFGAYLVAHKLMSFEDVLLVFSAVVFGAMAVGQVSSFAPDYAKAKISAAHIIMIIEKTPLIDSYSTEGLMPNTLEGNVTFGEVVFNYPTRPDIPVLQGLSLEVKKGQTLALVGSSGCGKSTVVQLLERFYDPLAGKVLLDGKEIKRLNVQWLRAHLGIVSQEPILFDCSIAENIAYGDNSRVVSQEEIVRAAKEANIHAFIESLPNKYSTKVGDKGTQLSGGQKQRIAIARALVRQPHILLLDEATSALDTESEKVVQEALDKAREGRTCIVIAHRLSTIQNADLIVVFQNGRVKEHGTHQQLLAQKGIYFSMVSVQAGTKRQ

T1 sequence (Q9UM73 whole entry, the tested form may be a part): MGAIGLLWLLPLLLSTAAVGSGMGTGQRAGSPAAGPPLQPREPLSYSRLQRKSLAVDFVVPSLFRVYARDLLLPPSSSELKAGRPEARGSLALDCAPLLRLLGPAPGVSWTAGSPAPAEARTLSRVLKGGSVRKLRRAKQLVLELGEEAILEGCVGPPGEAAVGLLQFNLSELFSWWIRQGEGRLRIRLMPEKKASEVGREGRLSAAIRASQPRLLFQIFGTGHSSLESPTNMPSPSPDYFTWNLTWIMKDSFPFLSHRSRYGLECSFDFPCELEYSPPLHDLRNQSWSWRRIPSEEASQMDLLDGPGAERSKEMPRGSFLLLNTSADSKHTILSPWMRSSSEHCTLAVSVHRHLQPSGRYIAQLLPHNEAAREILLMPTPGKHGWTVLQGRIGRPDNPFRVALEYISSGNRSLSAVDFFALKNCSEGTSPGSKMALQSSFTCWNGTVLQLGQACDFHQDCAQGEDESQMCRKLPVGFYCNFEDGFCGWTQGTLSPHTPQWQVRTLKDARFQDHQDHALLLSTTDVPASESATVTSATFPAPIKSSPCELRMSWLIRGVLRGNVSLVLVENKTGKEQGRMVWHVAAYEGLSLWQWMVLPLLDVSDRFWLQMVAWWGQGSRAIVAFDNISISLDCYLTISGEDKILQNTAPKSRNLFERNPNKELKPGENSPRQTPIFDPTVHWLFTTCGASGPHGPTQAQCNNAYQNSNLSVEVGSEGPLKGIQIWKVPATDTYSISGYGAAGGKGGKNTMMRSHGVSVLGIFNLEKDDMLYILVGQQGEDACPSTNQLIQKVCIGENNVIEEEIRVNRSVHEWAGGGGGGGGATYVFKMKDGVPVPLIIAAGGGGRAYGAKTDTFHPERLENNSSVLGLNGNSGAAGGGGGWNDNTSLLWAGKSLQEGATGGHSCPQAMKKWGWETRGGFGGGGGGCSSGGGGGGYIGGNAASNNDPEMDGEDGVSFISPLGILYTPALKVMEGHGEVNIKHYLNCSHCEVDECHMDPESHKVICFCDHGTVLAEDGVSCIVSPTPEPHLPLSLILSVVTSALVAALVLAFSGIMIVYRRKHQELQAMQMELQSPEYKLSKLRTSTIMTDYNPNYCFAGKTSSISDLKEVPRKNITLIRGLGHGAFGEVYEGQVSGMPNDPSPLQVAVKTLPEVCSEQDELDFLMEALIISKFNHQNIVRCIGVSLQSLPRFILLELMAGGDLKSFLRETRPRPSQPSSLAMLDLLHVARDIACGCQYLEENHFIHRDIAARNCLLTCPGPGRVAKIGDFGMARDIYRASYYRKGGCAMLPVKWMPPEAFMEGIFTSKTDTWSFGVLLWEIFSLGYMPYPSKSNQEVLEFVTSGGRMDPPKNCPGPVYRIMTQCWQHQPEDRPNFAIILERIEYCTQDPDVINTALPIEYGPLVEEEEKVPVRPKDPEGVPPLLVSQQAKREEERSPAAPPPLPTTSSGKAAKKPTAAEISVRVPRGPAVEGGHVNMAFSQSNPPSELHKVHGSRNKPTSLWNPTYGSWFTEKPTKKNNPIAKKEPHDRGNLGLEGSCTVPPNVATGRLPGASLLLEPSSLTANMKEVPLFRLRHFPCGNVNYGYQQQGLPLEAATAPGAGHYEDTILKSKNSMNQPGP
High affinity nerve growth factor receptor, sequence (P04629 whole entry, the tested form may be a part): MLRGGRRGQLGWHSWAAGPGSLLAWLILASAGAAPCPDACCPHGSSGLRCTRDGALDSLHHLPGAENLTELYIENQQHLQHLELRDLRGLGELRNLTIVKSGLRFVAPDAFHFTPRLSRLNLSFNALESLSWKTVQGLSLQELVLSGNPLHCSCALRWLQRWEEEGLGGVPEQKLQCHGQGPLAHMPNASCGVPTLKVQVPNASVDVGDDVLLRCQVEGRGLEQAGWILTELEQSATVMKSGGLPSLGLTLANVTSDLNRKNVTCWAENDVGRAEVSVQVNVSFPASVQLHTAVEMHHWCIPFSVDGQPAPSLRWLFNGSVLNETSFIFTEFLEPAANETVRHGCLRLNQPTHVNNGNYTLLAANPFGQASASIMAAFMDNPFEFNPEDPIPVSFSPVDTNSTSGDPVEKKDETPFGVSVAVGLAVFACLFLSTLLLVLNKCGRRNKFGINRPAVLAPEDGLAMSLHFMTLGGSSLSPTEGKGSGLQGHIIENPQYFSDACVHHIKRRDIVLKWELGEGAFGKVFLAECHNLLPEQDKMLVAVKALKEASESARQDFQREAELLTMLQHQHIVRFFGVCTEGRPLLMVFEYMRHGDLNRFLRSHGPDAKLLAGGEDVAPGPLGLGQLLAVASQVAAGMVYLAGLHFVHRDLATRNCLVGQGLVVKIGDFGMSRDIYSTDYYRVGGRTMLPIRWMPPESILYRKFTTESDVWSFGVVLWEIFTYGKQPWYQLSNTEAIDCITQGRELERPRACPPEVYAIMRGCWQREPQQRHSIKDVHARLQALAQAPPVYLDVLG

Structure (SMILES): Cc1cc(-n2cc(C(=O)N(C)C)c3ccc(N[C@@H](C)c4ccc(F)cn4)nc32)[nH]n1
IC50 [1]: 16 nM
Ratio IC50 (Homo sapiens): 67
IC50 [2]: 1.8 nM
IC50 [3]: 120 nM

Structure (SMILES): Cc1cc(-n2cc(C(=O)N3CCOCC3)c3ccc(N[C@@H](C)c4ccc(F)cn4)nc32)[nH]n1
IC50 [1]: 23 nM
efflux ratio at 2 h, 10 µM (MDR1 (ABCB1, P-gp)): 18
Ratio IC50 (Homo sapiens): 480
IC50 [2]: 2.5 nM
IC50 [3]: 1200 nM

Structure (SMILES): COCc1cn(-c2cc(C)n[nH]2)c2nc(OC(C)c3ccc(F)cn3)ccc12 (racemic; 16)
IC50 [2]: 2800 nM
IC50 [3]: 1500 nM

Structure (SMILES): Cc1cc(-n2cc(C3=CCOCC3)c3ccc(N[C@@H](C)c4ccc(F)cn4)nc32)[nH]n1
IC50 [1]: 9.4 nM
IC50 [2]: 1.9 nM
IC50 [3]: 2.7 nM

Structure (SMILES): Cc1cc(-n2cc(S(C)(=O)=O)c3ccc(N[C@@H](C)c4ccc(F)cn4)nc32)n[nH]1
IC50 [1]: 13 nM
IC50 [2]: 3.3 nM
IC50 [3]: 45 nM

Structure (SMILES): Cc1cc(-n2cc(S(C)(=O)=O)c3ccc(N[C@@H](C)c4ccc(F)cc4F)nc32)n[nH]1
IC50 [1]: 27 nM
IC50 [2]: 1.2 nM
IC50 [3]: 15 nM

Structure (SMILES): Cc1cc(-c2cnc3ccc(N[C@H](C)c4ccc(F)cc4F)nn23)[nH]n1
IC50 [2]: 1000 nM

Structure (SMILES): Cc1cc(-n2cc(C(=O)N3CCN(C)CC3)c3ccc(N[C@@H](C)c4ccc(F)cn4)nc32)[nH]n1
IC50 [1]: 37 nM
IC50 [2]: 6.1 nM
IC50 [3]: 250 nM

Structure (SMILES): Cc1cc(-n2cc(C(=O)N3CCOCC3)c3ccc(OC(C)c4ccc(F)cn4)nc32)[nH]n1 (racemic)
IC50 [1]: 69 nM
efflux ratio at 2 h, 10 µM (MDR1 (ABCB1, P-gp)): 3.1
IC50 [2]: 6.2 nM
IC50 [3]: 1400 nM

Structure (SMILES): COCc1cn(-c2cc(C)n[nH]2)c2nc(OC(C)c3ccc(F)cn3)ccc12 (racemic; 15)
IC50 [2]: 3.2 nM
IC50 [3]: < 10 nM

Structure (SMILES): Cc1cc(-n2cc(C(=O)N3CCO[C@H](C)C3)c3ccc(O[C@H](C)c4ccc(F)cn4)nc32)[nH]n1 (relative stereo)
IC50 [1]: 42 nM
efflux ratio at 2 h, 10 µM (MDR1 (ABCB1, P-gp)): 1.3
IC50 [2]: 4.6 nM
IC50 [3]: 3400 nM

Further compounds by falling IC50 [2], results first:

IC50 [1]: 60 nM
IC50 [2]: 20 nM
IC50 [3]: 730 nM
Structure (SMILES): Cc1cc(-n2cc(S(=O)(=O)C3COC3)c3ccc(N[C@@H](C)c4ccc(F)cn4)nc32)n[nH]1

IC50 [1]: 270 nM
Ratio IC50 (Homo sapiens): 94
IC50 [2]: 18 nM
IC50 [3]: 1700 nM
Structure (SMILES): Cc1cc(-n2cc(S(=O)(=O)C(C)C)c3ccc(N[C@@H](C)c4ccc(F)cn4)nc32)n[nH]1

IC50 [1]: 140 nM
IC50 [2]: 14 nM
IC50 [3]: < 10 nM
Structure (SMILES): Cc1cc(-n2ccc3ccc(N[C@@H](C)c4ccc(F)cc4F)nc32)[nH]n1

IC50 [1]: 37 nM
IC50 [2]: 9.6 nM
IC50 [3]: 110 nM
Structure (SMILES): CCS(=O)(=O)c1cn(-c2cc(C)[nH]n2)c2nc(N[C@@H](C)c3ccc(F)cn3)ccc12

IC50 [1]: 6 nM
IC50 [2]: 2 nM
IC50 [3]: 0.1 nM
Structure (SMILES): Cc1cc(-c2cnc3ccc(N[C@@H](C)c4ccc(F)cc4F)nn23)[nH]n1
